Series [1] has as its system CD34+-derived MKs. The experiment in a line: Polyploid MK numbers on collagen-coated gels of different elasticity. It counts as cell-based, human. As for the experimental part:
Fresh purified bone marrow (BM)-derived humanCD34^+ cells were obtained from either the Penn Xenograft Core Facility or AllCells. Cells from at least 10 different donors were used in this study. Purity of the samples (>98%) was confirmed by flow cytometry with monoclonal antibody against human CD34 conjugated to phycoerythrin (PE). All experiments were performed in hematopoietic stem cell (HSC) expansion media (StemLine-II; Sigma) supplemented with 1× antibiotics, and the following human recombinant cytokines SCF (100 ng/mL) and Tpo (100 ng/mL). In some occasions, the media was also supplemented by G-CSF (100 ng/mL). All cytokines were purchased from R&D Systems. After cells were cultured for 4 days, they were treated with different doses of cellular contractility inhibitors, including (±)-blebbistatin (EMDBiosciences), reversine, ML-7, and Y-27632 (Sigma) for indicated durations of up to 3 days. Unfortunately, longer exposure to drug proves toxic even to polyploidy cells under the present culture conditions. […] Stained cells were subjected to flow cytometric analysis (LSR-II; BD Biosciences): only viable cells (7-AAD^− and Hoechst 33342^+) were analyzed for ploidy. […] To quantify absolute number of polyploid cells, viable cell number was counted before flow cytometry by Trypan blue exclusion, and this number was multiplied by percentages of each DNA compartment and subpopulations. […]

The test system of series [2] is CD34+ cells. The settings on record: data from Boitano et al. (2010), cited from earlier work; for EC50: fitted, read-out: CD34+ cell number EC50.
In series [3] the test system is NMM-IIA pS1943. The experiment in a line: pS1943 of NMM-IIA by phospho-specific flow cytometry. Conditions: under cytokine stimulation (SCF and Tpo). It counts as cell-based, human. As to the method:
(§1) Cells were fixed with 4% paraformaldehyde in PBS for 10 min, washed with PBS and resuspended in 0.1% saponin in HBSS (staining medium). The samples were then stained with antibodies against cytoplasmic antigens, including NMM-IIA (Sigma), NMM-IIB, phospho-NMM-IIA and caspase-3 (all from Cell Signaling Technology) for 30 min at room temperature. In some cases, cells were concurrently stained with PE anti-CD34 or anti-human CD38 for subpopulation analysis. Cells were then washed and stained with anti-rabbit or mouse secondary antibodies conjugated with Alexa 647 (Invitrogen) for 30 min, followed by analysis on FACSCalibur.

The test system of series [4] is BM CD34+-derived cells (CD41+ MK). As to the kind of experiment: Ploidy analysis of CD34+-derived cells treated with contractility inhibitors (flow cytometry). It counts as cell-based, human. Conditions: for EC50: read-out: MK polyploid cell number EC50. As for the experimental part: Fresh purified bone marrow (BM)-derived humanCD34^+ cells were obtained from either the Penn Xenograft Core Facility or AllCells. Cells from at least 10 different donors were used in this study. Purity of the samples (>98%) was confirmed by flow cytometry with monoclonal antibody against human CD34 conjugated to phycoerythrin (PE). All experiments were performed in hematopoietic stem cell (HSC) expansion media (StemLine-II; Sigma) supplemented with 1× antibiotics, and the following human recombinant cytokines SCF (100 ng/mL) and Tpo (100 ng/mL). In some occasions, the media was also supplemented by G-CSF (100 ng/mL). All cytokines were purchased from R&D Systems. After cells were cultured for 4 days, they were treated with different doses of cellular contractility inhibitors, including (±)-blebbistatin (EMDBiosciences), reversine, ML-7, and Y-27632 (Sigma) for indicated durations of up to 3 days. Unfortunately, longer exposure to drug proves toxic even to polyploidy cells under the present culture conditions. Cells were then resuspended in PBS/2% FBS medium and subjected to ploidy analysis: cells were stained with CD41-FITC (BD Biosciences) at room temperature for 30 min, followed by Hoechst 33342 at 37° C. for 30 min. Then cells were stained with Annexin-V-PE (BD Biosciences) in the Annexin-V staining medium, followed by addition of 7-AAD. Stained cells were subjected to flow cytometric analysis (LSR-II; BD Biosciences): only viable cells (7-AAD^− and Hoechst 33342^+) were analyzed for ploidy. Cells with the DNA content of 8 N or higher were considered polyploid. To quantify absolute number of polyploid cells, viable cell number was counted before flow cytometry by Trypan blue exclusion, and this number was multiplied by percentages of each DNA compartment and subpopulations. Each multiplied number was then normalized by initial cell input number before drug treatment in culture.

Series [5] concerns CD34+-derived cells. The experiment in a line: Apoptosis by cleaved caspase-3 intracellular flow cytometry and Annexin-V. Conditions: G-CSF 100 ng/ml; CH-223191 500 nM (4n fraction). It counts as cell-based, human. As to the method: as §1
The test system of series [6] is CD34+-derived cells (HSC, MPP, CPP). The experiment in a line: AHR antagonist dose-response on HSC/P subpopulation number. It counts as cell-based, human. As for the experimental part:
Freshly purified bone marrow-derived human CD34^+ cells were obtained from either the Penn Xenograft Core Facility or AllCells (Emeryville, Calif.). Cells from at least 20 different donors were used in this study. Purity of the samples (>98%) was confirmed by flow cytometry with monoclonal antibody against human CD34. All experiments were performed in HSC expansion media (StemLine, Sigma) supplemented with 1× antibiotics, 20% BIT 9500 Serum Substitute (StemCell Technologies), 2 mM […] (Gibco) and the following human recombinant cytokines: SCF (100 ng/ml) and Tpo (100 ng/ml). In some occasions, the media was also supplemented by G-CSF (100 ng/ml), epidermal growth factor (EGF, 100 ng/ml), transforming growth factor beta 1 (TGF-beta1, 100 ng/ml), erythropoietin (EPO, 1 U/ml) and interleukin-3 (IL-3, 10 ng/ml). All cytokines were purchased from R&D Systems. After cells were cultured for 4 days, they were treated with different doses of cellular contractility inhibitors, including (±)-Blebbistatin (Bleb) (EMD Biosciences) and/or CH-223191 (Sigma) for indicated durations of up to 3 days. Cells were cultured at 37° C. in 5% CO2.
Surface marker analysis for HSC/Ps was done on either a LSR II flow cytometer or FACSCalibur (Becton Dickinson). […] Cells isolated from the bone marrow stained for 1 hr with APC anti-mouse CD47 (miap301, AbD Serotec), FITC anti-human CD47 (BD Biosciences), and PE anti-human CD11b, PE anti-human CD19 (both from BD Biosciences), or PE anti-human Glycophorin A (Invitrogen). Plts and RBCs were analyzed by staining with PE anti-mouse CD41 (eBioscience) and FITC anti-human CD41 (eBioscience) for 20 min, followed by analysis on FACSCalibur on log forward and side scatter scales.

Series [7] has as its target T1, αIIbβ3 (Homo sapiens, UniProt P05106+P08514).
T1 construct: endogenous in cells; host or cells: platelet-like fragments from megakaryocytes cultured from human bone-marrow CD34+ cells
As to the kind of experiment: Platelet activation assay, PAC-1 binding. Conditions: 10 μM, thrombin 1 U/mL. It counts as cell-based. As to the method: For platelet-activation assays, platelet-sided fraction isolated from either MK culture or NSG blood was resuspended in Tyrode's buffer supplemented with Mg^2+ and Ca^2+, and incubated with indicated agonists for 15 min at 37° C., followed by staining with FITC-conjugated anti-human P-selectin or PAC-1 antibody (BD Bioscience), APC-conjugated anti-human CD41, and in the case of xenograft samples, PE-conjugated anti-mouse CD41 for 15 min at room temperature, followed by fixation with 1.5% paraformaldehyde. Antibody-stained samples were then analyzed by flow cytometry. Platelet number was evaluated by mixing each sample with a defined number (˜10,000 beads per sample) of APC-conjugated beads (BD Bioscience). The number of platelets per sample was evaluated by: number of CD41^+ events/number of APC-bead events multiplied by total known number of APC-bead added per sample.

Setting [8] is: Homo sapiens, dose-response, n≥3 donors.

Where two headings read alike, the source gives them in different places. A value given as a limit tells only on which side of the number the result lay.

T1 sequence (P08514 32-887 limits assumed): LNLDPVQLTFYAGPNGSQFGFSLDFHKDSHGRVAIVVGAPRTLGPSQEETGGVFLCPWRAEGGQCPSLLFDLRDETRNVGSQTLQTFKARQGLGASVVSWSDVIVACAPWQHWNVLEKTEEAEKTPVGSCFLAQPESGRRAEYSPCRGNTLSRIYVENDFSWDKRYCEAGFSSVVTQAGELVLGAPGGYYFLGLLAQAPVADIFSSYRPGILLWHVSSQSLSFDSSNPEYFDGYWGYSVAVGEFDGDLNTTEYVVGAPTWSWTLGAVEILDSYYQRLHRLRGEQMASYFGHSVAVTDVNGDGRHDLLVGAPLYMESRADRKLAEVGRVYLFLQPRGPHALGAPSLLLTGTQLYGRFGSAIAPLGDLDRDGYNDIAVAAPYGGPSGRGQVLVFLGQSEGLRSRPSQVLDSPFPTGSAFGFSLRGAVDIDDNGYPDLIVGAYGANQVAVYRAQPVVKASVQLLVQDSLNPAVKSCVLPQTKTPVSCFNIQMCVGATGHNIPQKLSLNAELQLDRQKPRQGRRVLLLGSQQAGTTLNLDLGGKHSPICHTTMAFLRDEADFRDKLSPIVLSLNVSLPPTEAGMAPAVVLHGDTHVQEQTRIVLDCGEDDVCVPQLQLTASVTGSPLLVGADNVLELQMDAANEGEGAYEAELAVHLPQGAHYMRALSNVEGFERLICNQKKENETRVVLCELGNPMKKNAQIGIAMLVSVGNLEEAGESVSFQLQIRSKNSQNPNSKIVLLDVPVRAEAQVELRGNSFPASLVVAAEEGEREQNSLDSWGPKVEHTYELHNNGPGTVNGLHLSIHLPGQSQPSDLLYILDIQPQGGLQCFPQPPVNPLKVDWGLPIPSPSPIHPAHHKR
T1 sequence (P08514 891-1039 partner limits assumed): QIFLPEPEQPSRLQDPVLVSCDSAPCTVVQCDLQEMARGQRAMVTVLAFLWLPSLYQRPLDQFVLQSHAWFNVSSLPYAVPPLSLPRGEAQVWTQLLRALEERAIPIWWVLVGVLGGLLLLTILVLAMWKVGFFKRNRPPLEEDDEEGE
T1 sequence (P05106 27-788): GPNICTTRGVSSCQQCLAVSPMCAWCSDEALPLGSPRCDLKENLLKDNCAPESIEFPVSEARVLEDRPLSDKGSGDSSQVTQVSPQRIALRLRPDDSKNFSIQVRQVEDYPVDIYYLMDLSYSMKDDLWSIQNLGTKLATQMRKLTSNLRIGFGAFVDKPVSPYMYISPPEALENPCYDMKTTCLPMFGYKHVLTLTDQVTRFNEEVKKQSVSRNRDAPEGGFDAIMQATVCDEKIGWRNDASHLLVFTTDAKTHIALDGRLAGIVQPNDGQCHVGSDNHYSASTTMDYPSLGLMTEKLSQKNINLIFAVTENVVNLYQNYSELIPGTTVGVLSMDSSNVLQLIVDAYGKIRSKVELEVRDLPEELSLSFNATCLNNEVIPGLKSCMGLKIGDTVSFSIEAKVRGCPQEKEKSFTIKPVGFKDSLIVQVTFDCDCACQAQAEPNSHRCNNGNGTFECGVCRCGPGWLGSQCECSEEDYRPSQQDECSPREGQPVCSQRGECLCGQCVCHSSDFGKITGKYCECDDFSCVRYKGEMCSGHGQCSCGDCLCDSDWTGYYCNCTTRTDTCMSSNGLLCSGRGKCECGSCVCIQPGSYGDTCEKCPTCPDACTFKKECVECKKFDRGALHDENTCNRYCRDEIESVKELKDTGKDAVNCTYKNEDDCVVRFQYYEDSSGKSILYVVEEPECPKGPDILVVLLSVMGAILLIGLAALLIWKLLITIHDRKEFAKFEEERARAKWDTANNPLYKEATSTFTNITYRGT

Consider collagen, for which the “polyploid MK numbers on stiff gels, IC50 in collagen concentration” value in series [1] (blebbistatin-treated cells) is given as approximately 0.3 ng/cm^2. In series [1] (untreated cells), the “polyploid MK numbers on stiff gels, EC50 in collagen concentration” value is on record as approximately 200 ng/cm^2.

With `CC(C)n1cnc2c(NCCc3ccc(O)cc3)nc(-c3csc4ccccc34)nc21` [SR1], in series [2], the EC50 is 47.4 nM.

Regarding `O=c1cc(-c2ccccc2)oc2c1ccc1ccccc12` [a-napthoflavone, α-napthoflavone], in series [2], the EC50 was 177 nM and the “concentration showing toxic effect” value is not below 1000 nM.

For the compound “TGF-beta 1: transforming growth factor beta 1, human recombinant cytokine”, in series [3], the “effect on pS1943 level” value was “inhibits the reduction of pS1943 level”.

Turning to `C[C@@H](N)[C@H]1CC[C@H](C(=O)Nc2ccncc2)CC1` [Y-27632], in series [4] (setting [8]), the EC50 was found to be 140 nM.

Regarding `Cc1ccccc1N=Nc1ccc(NC(=O)c2ccnn2C)c(C)c1` [CH-223191], the EC50 in series [2] was 74 nM; in series [6] (untreated and Bleb, for both, read-out: CPP number EC50), 750 nM; in series [6] (untreated and Bleb, for both, read-out: MPP number EC50), 114 nM; in series [6] (with 20 μM Bleb, 3 days, read-out: HSC number EC50), 211 nM; in series [6] (without Bleb, 3 days, read-out: HSC number EC50), 158 nM. Moreover, the “viability of untreated CD34+ and CD34− cells” value in series [5] was “improves the viability”. Besides, the HSC/P ratio entry in series [6] (dual drug treatment with Bleb) was “almost doubled”.

As to `c1nc2nc(Nc3ccc(N4CCOCC4)cc3)nc(NC3CCCCC3)c2[nH]1` [reversine], the EC50 in series [4] (setting [8]) came out at 500 nM. The concentration for half-maximal inhibition (IC50) came out at 260 nM in series [4] (Homo sapiens, read-out: MK cell number in 2 N IC50) and 500 nM in series [4] (Homo sapiens, read-out: MK cell number in 4 N IC50).

For `CCCCS(=O)(=O)N[C@@H](Cc1ccc(OCCCCC2CCNCC2)cc1)C(=O)O` [Tirofiban], the “inhibition of agonist-induced PAC-1 binding” value in series [7] was “inhibits as expected”.

With “EGF: epidermal growth factor, human recombinant cytokine (NSDSECPLSHDGYCLHDGVCMYIEALDKYACNCVVGYIGERCQYRDLKWWELR; UniProt P01133 971-1023, looked up)”, in series [3], the “effect on pS1943 level” value is on record as “does not show a significant effect”.

Consider `O=S(=O)(c1cccc2c(I)cccc12)N1CCCNCC1` [ML7, ML-7], for which the IC50 came out at 500 nM in series [4] (2 N, read-out: MK cell number in 2 N IC50); 500 nM in series [4] (4 N, read-out: MK cell number in 4 N IC50); 1040 nM in series [4] (dose-response, n≥3 donors, read-out: MK polyploid cell number IC50).

Values taken from patent publication US9920295B2, “Bioreactor for isolation of rare cells and methods of use” (The Trustees of the University of Pennsylvania, priority 2012, dated 2018).
